This passage reports tumor growth results from patent US10736968B2, “Cellular signalling inhibitors, their formulations and methods thereof” (INVICTUS ONCOLOGY PVT. LTD., priority 2016, dated 2020).

This test deals with B16/F10 melanoma. Nature of the test: B16/F10 melanoma tumor growth. The settings on record: 45 mg/kg on day 0, day 4 and day 8. It is filed as in vivo, mice. The text has this: FIG. 6. Effect of BLN101 on tumor growth inhibition. […] To validate the therapeutic efficacy of AK750, we randomly sorted mice bearing B16/F10 melanoma into three groups and treated each group with one of the following: blank vehicle (control); AK750; and BLZ945. The mice injected with vehicle formed large tumors by Day 10 (the day of first injection being Day 0), and consequently were killed. The animals in the other groups were also killed at the same time point to evaluate the effect of the treatments on tumor pathology. […] Changes in body weight were within the acceptable limits.
Activity Studies of Compound of Formula I • Efficacy of BLN101 vs BLZ945 on the ability to inhibit CSF1R in vitro is studied. RAW264.7 cells are treated with BLZ945 (67 nM) or BLN101 (67 nM) for different time points, at the end of which the cells were exposed to CSF1 (10 ng/ml) for 20 min. The cells were then lysed and analyzed for phosphorylated CSF1R levels. […] Efficacy of BLN101 (in formulation AK750) vs BLZ945 on increase in iNOS expression in vitro is studied. It is observed that exposure to Tumor Conditioned Media over 24 h decreases INOS levels. […] At different time-points, the cells are harvested and analyzed the population for M1 (MHCII+, CD86+, CD80+) or M2 (CD206+) markers using fluorescence activated cell sorting (FIG. 5d). […]

The structures appear in SMILES notation.

For `CNC(=O)c1cc(Oc2ccc3nc(N[C@@H]4CCCC[C@H]4O)sc3c2)ccn1` [BLZ-945], the tumor growth entry was “decreased tumor growth compared with vehicle-treated animals”.
